# Reference: US20250230193A1, “CYCLIC COMPOUND HAVING SELECTIVE KRAS INHIBITORY EFFECT ON HRAS AND NRAS” (CHUGAI SEIYAKU KABUSHIKI KAISHA, priority 2022, published 2025)
# Where a SMILES comes first, the peptide text is derived from it. Bridges are numbered along the chain shown (N, C = ends). [ ]: non-standard residue; d: D form. hPhe(3-Cl-4-CF3) = N[C@@H](CCc1ccc(C(F)(F)F)c(Cl)c1)C(=O)O; NPrPhe(4-CF3) = CCCN[C@@H](Cc1ccc(C(F)(F)F)cc1)C(=O)O; NMeGly(cPent) = CN[C@H](C(=O)O)C1CCCC1; Pro(4,4-F2) = O=C(O)[C@@H]1CC(F)(F)CN1; NMeD = CN[C@@H](CC(=O)O)C(=O)O; NMeL = CN[C@@H](CC(C)C)C(=O)O; Ac5c = NC1(C(=O)O)CCCC1; Aze = O=C(O)[C@@H]1CCN1; Sar = CNCC(=O)O
# Assays:
# [1] = molecular target: GDP-bound NRAS wild-type protein (Homo sapiens, UniProt P01111); assay: Binding to NRAS by surface plasmon resonance (SPR), Single Cycle Kinetics
# GDP-bound NRAS wild-type protein, sequence (P01111 whole entry): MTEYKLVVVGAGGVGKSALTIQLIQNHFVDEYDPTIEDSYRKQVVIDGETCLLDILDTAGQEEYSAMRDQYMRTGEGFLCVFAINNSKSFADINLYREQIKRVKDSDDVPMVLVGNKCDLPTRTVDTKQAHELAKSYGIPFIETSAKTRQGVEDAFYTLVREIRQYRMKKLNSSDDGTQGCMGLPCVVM
# [2] = molecular target: GDP-bound HRAS wild-type protein (Homo sapiens, UniProt P01112); assay: Binding to HRAS by surface plasmon resonance (SPR), Single Cycle Kinetics
# GDP-bound HRAS wild-type protein, sequence (P01112 whole entry): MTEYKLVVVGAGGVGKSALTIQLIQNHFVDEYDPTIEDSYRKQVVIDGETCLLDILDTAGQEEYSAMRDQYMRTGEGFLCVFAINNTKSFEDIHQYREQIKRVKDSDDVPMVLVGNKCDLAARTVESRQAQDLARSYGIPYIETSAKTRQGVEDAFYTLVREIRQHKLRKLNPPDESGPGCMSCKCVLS
# [3] = KD ratio, GDP-bound NRAS wild-type vs GDP-bound KRAS wild-type, SPR
# [4] = KD ratio, GDP-bound HRAS wild-type vs GDP-bound KRAS wild-type, SPR
# [5] = SPR, GDP-bound NRAS wild-type vs GDP-bound KRAS wild-type
# [6] = SPR, GDP-bound HRAS wild-type vs GDP-bound KRAS wild-type
smiles,measurement,setting,value
CC[C@H](C)[C@@H]1NC(=O)[C@H](CC(C)C)N(C)C(=O)C[C@@H](C(=O)N2CCOCC2)N(CC)C(=O)[C@H](C2CCCC2)N(C)C(=O)C2(CCCC2)NC(=O)[C@@H]2CCCN2C(=O)[C@H](CCc2cc(F)c(C(F)(F)F)c(F)c2)NC(=O)CN(C)C(=O)[C@H](Cc2ccc(C(F)(F)F)cc2)N2CCCC[C@@H](C2=O)N(C)C(=O)CN(C)C1=O [PP0539],NRAS/KRAS (ratio of KD value with respect to GDP-bound NRAS wild-type protein to KD value with respect to KRAS),[1]; SPR,B (a compound having 3 or more and less than 10 is denoted as B)
same,HRAS/KRAS (ratio of KD value with respect to GDP-bound HRAS wild-type protein to KD value with respect to KRAS),[2]; SPR,B (a compound having 3 or more and less than 10 is denoted as B)
CCO[C@@H]1C[C@H]2C(=O)NC3(CCC3)C(=O)N(C)[C@@H](C3CCCC3)C(=O)N(C)[C@H](C(=O)N(C)C)CC(=O)N(C)[C@@H](Cc3cccc(Cl)c3)C(=O)N[C@@H]([C@@H](C)CC)C(=O)N(C)CC(=O)N(C)[C@H]3C/C=C\CCN(C3=O)[C@@H](Cc3ccc(C(F)(F)F)cc3)C(=O)N(C)CC(=O)N[C@@H](CCc3cc(F)c(C(F)(F)F)c(F)c3)C(=O)N2C1 [PP1127],NRAS/KRAS (ratio of KD value with respect to NRAS to KD value with respect to KRAS),[1]; [3],AA (a compound having 20 or more is denoted as AA)
same,HRAS/KRAS (ratio of KD value with respect to HRAS to KD value with respect to KRAS),[2]; [4],A (a compound having 10 or more and less than 20 is denoted as A)
"CCCN1C(=O)CN(C)C(=O)[C@@H]2CCN2C(=O)[C@H]([C@@H](C)CC)NC(=O)[C@H](CC(C)C)N(C)C(=O)C[C@@H](C(=O)N(C)C)N(C)C(=O)[C@H](C2CCCC2)N(C)C(=O)C2(CCCC2)NC(=O)[C@@H]2CC(F)(F)CN2C(=O)[C@H](CCc2ccc(C(F)(F)F)c(Cl)c2)NC(=O)CN(C)C(=O)[C@@H]1Cc1ccc(C(F)(F)F)cc1 [PP0431] ([NMeL]I[Aze][Sar][NPrPhe(4-CF3)][Sar][hPhe(3-Cl-4-CF3)][Pro(4,4-F2)][Ac5c][NMeGly(cPent)][NMeD]-NMe2; lactam N-11)",NRAS/KRAS (ratio of KD value with respect to GDP-bound NRAS wild-type protein to KD value with respect to KRAS),[1]; SPR,B (a compound having 3 or more and less than 10 is denoted as B)
same,HRAS/KRAS (ratio of KD value with respect to GDP-bound HRAS wild-type protein to KD value with respect to KRAS),[2]; SPR,C (A compound having a KD ratio of 0.1 or more and less than 3 is denoted as C)
CCO[C@@H]1C[C@H]2C(=O)NC3(CC(C)(C)C3)C(=O)N(C)[C@@H](C(CC)CC)C(=O)N(C)[C@H](C(=O)N(C)C)CC(=O)N(C)[C@@H](CC(C)C)C(=O)N[C@@H]([C@@H](C)CC)C(=O)N(C)CC(=O)N(C)[C@H]3C/C=C\CCN(C3=O)[C@@H](Cc3ccc(C(F)(F)F)cc3)C(=O)N(C)CC(=O)N[C@@H](CCc3cc(F)c(C(F)(F)F)c(F)c3)C(=O)N2C1 [PP2127],NRAS/KRAS (ratio of KD value with respect to NRAS to KD value with respect to KRAS),[1]; [5],AA (a compound having 20 or more is denoted as AA)
same,HRAS/KRAS (ratio of KD value with respect to HRAS to KD value with respect to KRAS),[2]; [6],A (a compound having 10 or more and less than 20 is denoted as A)
CCCC[C@H]1C(=O)N[C@@H]([C@@H](C)CC)C(=O)N(C)CC(=O)N(C)[C@H]2C/C=C\CCN(C2=O)[C@@H](Cc2ccc(C)cc2)C(=O)N(C)CC(=O)N[C@@H](CCc2cc(F)c(C(F)(F)F)c(F)c2)C(=O)N2C[C@H](OCC)C[C@H]2C(=O)NC2(CCC2)C(=O)N(C)[C@@H](C2CCCC2)C(=O)N(C)[C@H](C(=O)N(C)CC)CC(=O)N1C [PP2796],NRAS/KRAS (ratio of KD value with respect to GDP-bound NRAS wild-type protein to KD value with respect to KRAS),[1]; class symbols,A (a compound having 10 or more and less than 20 is denoted as A)
same,HRAS/KRAS (ratio of KD value with respect to GDP-bound HRAS wild-type protein to KD value with respect to KRAS),[2]; class symbols,A (a compound having 10 or more and less than 20 is denoted as A)
CC[C@H](C)[C@@H]1NC(=O)[C@H](CC)N(C)C(=O)C[C@@H](C(=O)N(C)C)N(C)C(=O)[C@H](C2CCCC2)N(C)C(=O)C2(CCC2)N(C)C(=O)[C@@H]2C[C@@H](C)CN2C(=O)[C@H](CCc2cc(F)c(C(F)(F)F)c(F)c2)NC(=O)CN(C)C(=O)[C@H](Cc2ccc(C)cc2)N2CC/C=C\C[C@@H](C2=O)N(C)C(=O)[C@@H]2CCCN2C1=O [PP1789],NRAS/KRAS (ratio of KD value for NRAS to KD value for KRAS),[1]; [3],A (a compound having 10 or more and less than 20 is denoted as A)
same,HRAS/KRAS (ratio of KD value for HRAS to KD value for KRAS),[2]; [4],A (a compound having 10 or more and less than 20 is denoted as A)
CCC[C@H]1C(=O)N[C@@H]([C@@H](C)CC)C(=O)N2CCC[C@H]2C(=O)N(C)[C@H]2C/C=C\CCN(C2=O)[C@@H](Cc2ccc(C(F)(F)F)cc2)C(=O)N(C)CC(=O)N[C@@H](CCc2ccc(C(F)(F)F)c(OC)c2)C(=O)N2C[C@H](OCC)C[C@H]2C(=O)N(C)C2(CCC2)C(=O)N(C)[C@@H](C(CC)CC)C(=O)N(C)[C@H](C(=O)N(C)C)CC(=O)N1C [PP2317],NRAS/KRAS (ratio of KD value with respect to NRAS to KD value with respect to KRAS),[1]; [5],A (a compound having 10 or more and less than 20 is denoted as A)
same,HRAS/KRAS (ratio of KD value with respect to HRAS to KD value with respect to KRAS),[2]; [6],A (a compound having 10 or more and less than 20 is denoted as A)
CCCOC[C@H]1C(=O)N[C@@H]([C@@H](C)CC)C(=O)N(C)CC(=O)N(C)[C@H]2C/C=C\CCN(C2=O)[C@@H](Cc2ccc(C)cc2)C(=O)N(C)CC(=O)N[C@@H](CCc2ccc(C(F)(F)F)c(Cl)c2)C(=O)N2C[C@@H](C)C[C@H]2C(=O)NC2(CC(C)(C)C2)C(=O)N(C)[C@@H](C2CCCC2)C(=O)N(C)[C@H](C(=O)N(C)C)CC(=O)N1C [PP2453],NRAS/KRAS (ratio of KD value with respect to NRAS to KD value with respect to KRAS),[1]; [5],A (a compound having 10 or more and less than 20 is denoted as A)
same,HRAS/KRAS (ratio of KD value with respect to HRAS to KD value with respect to KRAS),[2]; [6],A (a compound having 10 or more and less than 20 is denoted as A)
